Laboratory results reported in patent publication US9505800B2, “Extended triterpene derivatives” (Myrexis, Inc., priority 2006, dated 2016).

Columns and labels:
HIV-1IIIB virus = test: Determination of a compound's EC50 on MT-2 cell line (HIV-1IIIB infection, XTT/PMS viability read-out); format: cell-based; details: Table 1; for TI: TI = CC50:EC50 ratio
Description: Drug Preparation—The EC50 value for each compound is determined prior to determining the combination index. Each compound is tested in replicates of three, starting at a final concentration of 1 ug/mL. Compounds are dissolved in DMSO at a stock concentration of 10 mg/mL. Test compounds are serially diluted (4-fold dilutions) in a 96-flat-bottom-well plate. The initial working concentration of compound is 4× the desired final concentration. The final volume of drug per well is 45 uL. Included as controls are at least four wells containing cells only and four containing cells and virus in the absence of drug.
Virus Preparation—The HIV-1IIIB virus generated in the H9 cell line is diluted in culture media. The virus is used at a dilution that will cause 50%-75% cell death in day five post-infection as determined by XTT/PMS vital dye. Virus (45 uL) is added to all wells containing drug as well as the control wells.
Cell Preparation—MT-2 cells are added to each well at a volume of 90 uL per well at a cell concentration of 3.3×10^5 cells per mL. MT-2 cells are human T-cell leukemia cells isolated from cord blood lymphocytes and co-cultured with cells from patients with adult T-cell leukemia. […]
Assay—Culture plates are placed in a 37° C., 5% CO2, humidified incubator. […] XTT, (2,3-Bis(2-methoxy-4-nitro-5-sulfophenyl)-2H-tetrazolium-5-carboxanilide) is a yellow tetrazolium salt that, in the presence of dehydrogenase enzymes of metabolically active cells, is reduced to yield a soluble orange formazan dye, which can be measured by absorbance at 490 (or 450) nm in a microplate reader. […] For each plate to be analyzed, 5 mL of XTT/PMS is needed. […] Plates are placed uncovered into a 5% CO2, 37° C. incubator and read on plate reader at a wavelength of 450 nm after four hour incubation.
Data Compilation—The percent inhibition at a given concentration is determined by using the following formula: (average OD-virus control)/(cell control—virus control). The EC50 for each compound is calculated from the linear regression of percent inhibition.

in vitro = details: human
[1] = CC50 (cytotoxicity) reported beside the EC50 values; method not described; details: human, MT-2 cells

| SMILES | EC50 (HIV-1IIIB virus; Human immunodeficiency virus 1, MT2, 120 h, extended compound vs non-extended analog, MT-2 cells, HIV-1IIIB, day 5 post infection, XTT/PMS) | TI (HIV-1IIIB virus) | CC50 (in vitro) | CC50 [1] |
| --- | --- | --- | --- | --- |
| C=C(C)[C@@H]1CC[C@]2(CCN3CCOCC3)CC[C@]3(C)[C@H](CC[C@@H]4[C@@]5(C)CC[C@H](OC(=O)CC(C)(C)CC(=O)O)C(C)(C)[C@@H]5CC[C@]43C)[C@@H]12 | 0.0221 µM | 3387 | 74.8 µM | – |
| C=C(C)[C@@H]1CC[C@]2(CN3CCOCC3)CC[C@]3(C)[C@H](CC[C@@H]4[C@@]5(C)CC[C@H](OC(=O)CC(C)(C)CC(=O)O)C(C)(C)[C@@H]5CC[C@]43C)[C@@H]12 | – | 135 | – | 10.4 µM |
